Some targets named below: Histone deacetylase 4 (Homo sapiens, UniProt P56524); Histone deacetylase 3 (Homo sapiens, UniProt O15379); Histone deacetylase 1 (Homo sapiens, UniProt Q13547).
The target in experiment [1] is T1, Histone deacetylase 8 (Homo sapiens, UniProt Q9BY41).
T1 sequence (Q9BY41 whole entry): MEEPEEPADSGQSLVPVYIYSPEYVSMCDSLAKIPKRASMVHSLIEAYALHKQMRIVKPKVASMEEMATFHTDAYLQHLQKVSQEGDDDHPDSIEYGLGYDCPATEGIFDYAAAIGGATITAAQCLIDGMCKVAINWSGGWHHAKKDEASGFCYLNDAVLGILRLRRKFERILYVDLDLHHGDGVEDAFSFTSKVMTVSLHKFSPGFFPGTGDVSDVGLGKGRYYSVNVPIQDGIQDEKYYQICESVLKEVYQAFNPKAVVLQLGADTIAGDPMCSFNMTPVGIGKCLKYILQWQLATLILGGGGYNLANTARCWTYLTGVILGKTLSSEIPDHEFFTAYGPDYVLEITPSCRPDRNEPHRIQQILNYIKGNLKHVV

Another experiment deals with K562. Briefly: cells. Particulars: Homo sapiens, K562, 72 h; call rule not given here. The experiment is classed as functional, cell-based.
Experiment [2] addresses T2, Protein deacetylase HDAC6 (Homo sapiens, UniProt Q9UBN7).
T2 sequence (Q9UBN7 whole entry): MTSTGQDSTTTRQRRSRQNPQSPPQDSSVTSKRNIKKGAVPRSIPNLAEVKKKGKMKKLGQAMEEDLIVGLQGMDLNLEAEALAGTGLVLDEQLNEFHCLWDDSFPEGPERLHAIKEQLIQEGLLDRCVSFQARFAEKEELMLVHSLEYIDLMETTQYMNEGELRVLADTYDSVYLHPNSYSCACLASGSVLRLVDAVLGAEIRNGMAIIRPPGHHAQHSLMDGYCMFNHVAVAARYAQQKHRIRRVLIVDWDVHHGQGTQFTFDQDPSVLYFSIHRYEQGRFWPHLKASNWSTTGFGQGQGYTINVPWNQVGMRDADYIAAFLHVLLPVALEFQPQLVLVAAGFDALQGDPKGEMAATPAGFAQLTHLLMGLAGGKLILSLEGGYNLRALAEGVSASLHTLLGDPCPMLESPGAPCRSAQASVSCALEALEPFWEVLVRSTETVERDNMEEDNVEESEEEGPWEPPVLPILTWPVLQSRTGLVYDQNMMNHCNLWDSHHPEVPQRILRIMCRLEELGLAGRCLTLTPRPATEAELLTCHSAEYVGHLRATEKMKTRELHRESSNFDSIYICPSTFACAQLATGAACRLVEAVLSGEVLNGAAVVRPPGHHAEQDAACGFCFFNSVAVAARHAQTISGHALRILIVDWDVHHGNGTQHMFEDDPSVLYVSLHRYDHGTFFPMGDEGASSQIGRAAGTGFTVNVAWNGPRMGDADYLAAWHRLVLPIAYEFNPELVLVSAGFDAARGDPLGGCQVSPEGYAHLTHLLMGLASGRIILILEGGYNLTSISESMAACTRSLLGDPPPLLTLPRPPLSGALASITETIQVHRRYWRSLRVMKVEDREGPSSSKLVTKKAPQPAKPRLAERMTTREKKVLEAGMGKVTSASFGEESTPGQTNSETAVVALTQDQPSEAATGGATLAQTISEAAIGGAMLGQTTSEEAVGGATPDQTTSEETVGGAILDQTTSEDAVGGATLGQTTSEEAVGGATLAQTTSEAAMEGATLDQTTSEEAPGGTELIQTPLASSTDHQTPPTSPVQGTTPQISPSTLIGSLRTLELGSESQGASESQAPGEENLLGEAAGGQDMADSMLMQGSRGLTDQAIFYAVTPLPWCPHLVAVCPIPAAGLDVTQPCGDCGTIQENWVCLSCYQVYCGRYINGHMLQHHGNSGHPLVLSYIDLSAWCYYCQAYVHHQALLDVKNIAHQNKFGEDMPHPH

In the next experiment the test system is A549. Put plainly: cells. Type of experiment: functional, cell-based. Particulars: Homo sapiens, A549, 72 h.
Another experiment deals with HCT-116. Briefly: cells. The experiment is classed as functional, cell-based. Particulars: Homo sapiens, HCT-116, 72 h.
Experiment [3] addresses T1, Histone deacetylase 8. The source holds these as a separate data set.
Experiment [4] concerns U-937. Put plainly: Induction of cell cycle arrest in human U-937 cells assessed as accumulation of cells in pre-G1 phase at 5 uM for 24 hrs by PI staining based flow cytometric analysis. The experiment is classed as functional. Background: A flow cytometer gives signals particle by particle.
The test system of experiment [5] is U-937. Put plainly: Induction of cell cycle arrest in human U-937 cells assessed as accumulation of cells in G1 phase at 1 to 5 uM for 48 hrs by PI staining based flow cytometric analysis. The experiment is classed as functional. Particulars: dose 1-5 µM.

Histone deacetylase 3, sequence (O15379 whole entry): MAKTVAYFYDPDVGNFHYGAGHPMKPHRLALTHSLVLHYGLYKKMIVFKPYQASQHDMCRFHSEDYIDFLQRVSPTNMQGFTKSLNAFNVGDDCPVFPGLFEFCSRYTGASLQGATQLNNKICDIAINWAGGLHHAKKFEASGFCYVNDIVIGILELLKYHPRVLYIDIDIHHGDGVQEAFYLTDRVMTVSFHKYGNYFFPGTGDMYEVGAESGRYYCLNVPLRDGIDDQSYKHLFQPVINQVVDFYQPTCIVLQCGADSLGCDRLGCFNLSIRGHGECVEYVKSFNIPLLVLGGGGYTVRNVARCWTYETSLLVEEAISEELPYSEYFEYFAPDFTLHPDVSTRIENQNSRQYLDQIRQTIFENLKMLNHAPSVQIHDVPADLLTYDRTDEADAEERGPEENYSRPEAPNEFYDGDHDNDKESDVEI
Histone deacetylase 1, sequence (Q13547 whole entry): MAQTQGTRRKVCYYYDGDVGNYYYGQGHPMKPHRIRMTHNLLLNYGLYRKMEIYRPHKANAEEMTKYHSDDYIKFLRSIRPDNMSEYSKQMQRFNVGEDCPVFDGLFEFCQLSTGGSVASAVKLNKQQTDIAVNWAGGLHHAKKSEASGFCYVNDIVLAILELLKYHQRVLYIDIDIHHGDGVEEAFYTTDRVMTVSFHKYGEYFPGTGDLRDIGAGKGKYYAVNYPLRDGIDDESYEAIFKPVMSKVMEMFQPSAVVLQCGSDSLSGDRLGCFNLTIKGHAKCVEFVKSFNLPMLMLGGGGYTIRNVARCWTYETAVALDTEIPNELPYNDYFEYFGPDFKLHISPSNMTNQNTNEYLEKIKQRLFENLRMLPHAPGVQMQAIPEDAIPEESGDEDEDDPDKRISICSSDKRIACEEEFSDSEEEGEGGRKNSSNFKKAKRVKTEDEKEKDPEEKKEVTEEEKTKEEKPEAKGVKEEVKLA
Histone deacetylase 4, sequence (P56524 whole entry): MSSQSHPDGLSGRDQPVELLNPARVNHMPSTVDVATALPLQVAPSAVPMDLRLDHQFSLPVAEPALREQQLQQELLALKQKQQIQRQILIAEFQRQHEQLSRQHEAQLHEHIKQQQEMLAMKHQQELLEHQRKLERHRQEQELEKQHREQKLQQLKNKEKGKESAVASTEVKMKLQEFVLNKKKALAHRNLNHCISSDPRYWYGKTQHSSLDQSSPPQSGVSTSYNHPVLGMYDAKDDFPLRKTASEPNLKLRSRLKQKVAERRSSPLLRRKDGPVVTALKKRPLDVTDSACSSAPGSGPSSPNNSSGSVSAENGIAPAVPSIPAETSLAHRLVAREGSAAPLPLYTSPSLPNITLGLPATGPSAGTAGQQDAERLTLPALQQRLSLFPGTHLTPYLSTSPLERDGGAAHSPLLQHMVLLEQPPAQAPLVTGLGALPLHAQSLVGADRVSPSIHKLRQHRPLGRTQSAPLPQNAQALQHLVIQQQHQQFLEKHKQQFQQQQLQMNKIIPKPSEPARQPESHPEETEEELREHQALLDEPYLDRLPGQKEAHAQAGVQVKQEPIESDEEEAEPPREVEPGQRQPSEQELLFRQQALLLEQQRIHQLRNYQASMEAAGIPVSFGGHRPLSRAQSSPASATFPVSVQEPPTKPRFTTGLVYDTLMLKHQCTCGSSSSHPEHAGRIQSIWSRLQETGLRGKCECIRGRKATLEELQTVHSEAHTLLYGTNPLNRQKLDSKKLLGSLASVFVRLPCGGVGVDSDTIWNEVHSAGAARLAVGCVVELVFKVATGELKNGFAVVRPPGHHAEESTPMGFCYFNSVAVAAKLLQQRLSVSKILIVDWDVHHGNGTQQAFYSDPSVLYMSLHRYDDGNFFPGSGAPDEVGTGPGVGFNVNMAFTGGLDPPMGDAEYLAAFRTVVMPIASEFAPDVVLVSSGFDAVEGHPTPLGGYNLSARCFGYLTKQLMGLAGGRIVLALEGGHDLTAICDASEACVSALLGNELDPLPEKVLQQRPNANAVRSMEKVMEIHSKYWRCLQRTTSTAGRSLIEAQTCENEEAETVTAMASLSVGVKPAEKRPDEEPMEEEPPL

In general, IC50 refers to the concentration that inhibits the measured activity by half. In the case of `CC(C)C(C(=O)Nc1ccc(C(=O)NO)nc1)c1ccccc1` (stereo not given), the IC50 amounted to 882 nM against Histone deacetylase 8 [1]; 63200 nM on Histone deacetylase 4 (read-out: IC50); 1040 nM with K562; 681 nM against Histone deacetylase 3; 41 nM in [2] (read-out: IC50); 3750 nM with A549. Moreover, the results for the IC50 with HCT-116 and against Histone deacetylase 1 were 1310 nM and 1010 nM, respectively.

Regarding `Nc1ccccc1NC(=O)/C=C/c1ccc(NC(=O)Cc2ccccc2)cn1`, the IC50 is 31400 nM against Histone deacetylase 8 [1]; “Not Active” on Histone deacetylase 4; 224 nM against Histone deacetylase 3; “Not Active” in experiment [2]; 108 nM at Histone deacetylase 1.

Regarding `CCC(C(=O)Nc1ccc(C(=O)NO)nc1)c1ccccc1` (stereo not given), the IC50 is 964 nM on Histone deacetylase 8 [1]; 77900 nM on Histone deacetylase 4 (read-out: IC50); 1780 nM in the experiment on K562; 777 nM on Histone deacetylase 3; 51 nM in experiment [2] (read-out: IC50); 5470 nM with A549. The IC50 amounted to 1680 nM in the experiment with HCT-116 and 1490 nM on Histone deacetylase 1.

As to `Nc1ccccc1NC(=O)/C=C/c1ccc(NC(=O)Cc2cccc3ccccc23)cn1`, the concentration for half-maximal inhibition (IC50) result against Histone deacetylase 8 [3] was “Not Active”; against Histone deacetylase 4 it was “Not Active”; with K562 it was 3140 nM; against Histone deacetylase 3, 264 nM; in [2] it was “Not Active”; with A549 it was 9430 nM. For the same compound, the IC50 in the experiment on HCT-116 turned out to be 8280 nM; on Histone deacetylase 1, 63 nM.

For the compound `Nc1ccccc1NC(=O)/C=C/c1ccc(NC(=O)C(Cc2ccccc2)c2ccccc2)cn1` (stereo not given), the IC50 entry on Histone deacetylase 8 [3] was “Not Active”; against Histone deacetylase 4, “Not Active”; with K562, 1860 nM; against Histone deacetylase 3, 603 nM; in experiment [2], “Not Active”; in the experiment on A549 it was 4300 nM. In addition, the IC50 was 2740 nM with HCT-116 and 496 nM against Histone deacetylase 1.

As for `Nc1ccccc1NC(=O)c1ccc(NC(=O)Cc2ccccc2)cn1`, the half-maximal inhibitory concentration (IC50) is 77100 nM on Histone deacetylase 8 [1]; “Not Active” against Histone deacetylase 4; 540 nM in the experiment with K562; 248 nM on Histone deacetylase 3; “Not Active” in experiment [2]; 1350 nM with A549. For the same compound, the IC50 with HCT-116 was determined as 560 nM; on Histone deacetylase 1, 201 nM.

Consider `O=C(Cc1ccc2ccccc2c1)Nc1ccc(C(=O)NO)nc1`, for which the IC50 came to 976 nM against Histone deacetylase 8 [1]; 15800 nM at Histone deacetylase 4 (read-out: IC50); 207 nM against Histone deacetylase 3; 123 nM in experiment [2] (read-out: IC50); 94000 nM on Histone deacetylase 1.

For the compound `CCC(C(=O)Nc1ccc(/C=C/C(=O)Nc2ccccc2N)nc1)c1ccccc1` (stereo not given), the concentration for half-maximal inhibition (IC50) on Histone deacetylase 8 [1] is 35600 nM; against Histone deacetylase 4, “Not Active”; on Histone deacetylase 3, 268 nM; in [2], “Not Active”; at Histone deacetylase 1, 143 nM.

`O=C(CCCCCCC(=O)Nc1ccccc1)NO` [VORINOSTAT]: the results for the Activity in the experiment with U-937 [4] and with U-937 [5] were 10% and 70%, respectively.

Turning to `O=C(/C=C/c1ccc(NC(=O)Cc2ccccc2)cn1)NO`, the 50% inhibitory concentration (IC50) at Histone deacetylase 8 [1] was determined as 183 nM; on Histone deacetylase 4 (read-out: IC50), 19300 nM; in the experiment on K562, 910 nM; against Histone deacetylase 3 it was 78 nM; in [2] (read-out: IC50), 13 nM; in the experiment with A549, 2980 nM. For the same compound, the IC50 in the experiment on HCT-116 came out at 880 nM; against Histone deacetylase 1, 68 nM.

For the compound `CCC(C(=O)Nc1ccc(/C=C/C(=O)NO)nc1)c1ccccc1` (stereo not given), the IC50 was 104 nM at Histone deacetylase 8 [1]; 17100 nM at Histone deacetylase 4 (read-out: IC50); 36 nM against Histone deacetylase 3; 11 nM in experiment [2] (read-out: IC50); 77 nM against Histone deacetylase 1.

Consider `O=C(/C=C/c1ccc(NC(=O)Cc2ccc3ccccc3c2)cn1)NO`, for which the IC50 against Histone deacetylase 8 [1] is 1010 nM; on Histone deacetylase 4 (read-out: IC50), 17600 nM; with K562 it was 130 nM; on Histone deacetylase 3, 168 nM; in experiment [2] (read-out: IC50), 112 nM; with A549 it was 600 nM. Also, the IC50 with HCT-116 came to 210 nM; against Histone deacetylase 1, 376 nM.

Turning to `O=C(Cc1cccc2ccccc12)Nc1ccc(C(=O)NO)nc1`, the IC50 on Histone deacetylase 8 [1] amounted to 1810 nM; on Histone deacetylase 4 (read-out: IC50), 30700 nM; against Histone deacetylase 3, 1390 nM; in experiment [2] (read-out: IC50), 58 nM; against Histone deacetylase 1, 2850 nM.

For `Nc1ccccc1NC(=O)/C=C/c1ccc(NC(=O)Cc2ccc3ccccc3c2)cn1`, the IC50 against Histone deacetylase 8 [1] was 77100 nM; against Histone deacetylase 4 it was “Not Active”; in the experiment on K562 it was 1700 nM; against Histone deacetylase 3, 414 nM; in experiment [2], “Not Active”; with A549 it was 7430 nM. In addition, the 50% inhibitory concentration (IC50) in the experiment on HCT-116 stood at 3230 nM; on Histone deacetylase 1 it was 203 nM.

For the compound `CC(C)C(C(=O)Nc1ccc(C(=O)Nc2ccccc2N)nc1)c1ccccc1` (stereo not given), the half-inhibitory concentration (IC50) at Histone deacetylase 8 [1] was 75200 nM; against Histone deacetylase 4, “Not Active”; against Histone deacetylase 3, 488 nM; in experiment [2], “Not Active”; against Histone deacetylase 1 it was 330 nM.

In the case of `CC(C)C(C(=O)Nc1ccc(/C=C/C(=O)Nc2ccccc2N)nc1)c1ccccc1` (stereo not given), the IC50 on Histone deacetylase 8 [1] is 43100 nM; on Histone deacetylase 4 it was “Not Active”; with K562, 2890 nM; against Histone deacetylase 3 it was 319 nM; in experiment [2] it was “Not Active”; with A549, 5690 nM. Further, the IC50 is 4380 nM in the experiment with HCT-116 and 151 nM against Histone deacetylase 1.

As to `Nc1ccccc1NC(=O)c1ccc(NC(=O)Cc2cccc3ccccc23)cn1`, the IC50 was 98400 nM against Histone deacetylase 8 [1]; “Not Active” against Histone deacetylase 4; 289 nM against Histone deacetylase 3; “Not Active” in experiment [2]; 129 nM against Histone deacetylase 1.

Turning to `O=C(NO)c1ccc(NC(=O)C(Cc2ccccc2)c2ccccc2)cn1` (stereo not given), the IC50 is 1090 nM on Histone deacetylase 8 [1]; 39200 nM on Histone deacetylase 4 (read-out: IC50); 490 nM with K562; 153 nM against Histone deacetylase 3; 16 nM in experiment [2] (read-out: IC50); 2660 nM in the experiment on A549. Moreover, the values for the IC50 in the experiment on HCT-116 and at Histone deacetylase 1 were 1050 nM and 783 nM, respectively.

For the compound `O=C(Cc1ccccc1)Nc1ccc(C(=O)NO)nc1`, the IC50 against Histone deacetylase 8 [1] is 1090 nM; on Histone deacetylase 4 (read-out: IC50), 82400 nM; against Histone deacetylase 3, 2060 nM; in experiment [2] (read-out: IC50), 174 nM; against Histone deacetylase 1, 3000 nM.

For the compound `CC(C)C(C(=O)Nc1ccc(/C=C/C(=O)NO)nc1)c1ccccc1` (stereo not given), the IC50 against Histone deacetylase 8 [1] is 168 nM; at Histone deacetylase 4 (read-out: IC50), 16000 nM; in the experiment with K562, 180 nM; on Histone deacetylase 3, 28 nM; in experiment [2] (read-out: IC50) it was 10 nM; with A549, 590 nM. Moreover, the IC50 with HCT-116 turned out to be 260 nM; on Histone deacetylase 1, 81 nM.

In the case of `CCC(C(=O)Nc1ccc(C(=O)Nc2ccccc2N)nc1)c1ccccc1` (stereo not given), the IC50 is 66200 nM against Histone deacetylase 8 [1]; “Not Active” against Histone deacetylase 4; 433 nM against Histone deacetylase 3; “Not Active” in experiment [2]; 321 nM on Histone deacetylase 1.

The values above are taken from ChEMBL document CHEMBL5352478, “Novel pyridine-containing histone deacetylase inhibitors strongly arrest proliferation, induce apoptosis and modulate miRNAs in cancer cells” (Eur J Med Chem, 2023).
